Results published in patent publication US20230233580A1, “USE OF OXYGENATED CHOLESTEROL SULFATES FOR CANCERS AND NON-CANCEROUS TRANSFORMATIONS RELATED TO EPSTEIN-BARR VIRUS” (priority 2020, published 2023).
Where “and” joins values, the source holds several entries; their conditions need not be identical. Equal entries are not always repeated.

How the values were obtained:
[1] = Metabolite profiling of plasma, urine, feces, intravenous dose; assay type: in vivo, rats; settings: intravenous 10 mg/kg
Experimental: Plasma pools were made from Group 1 rats at the 0.083, 0.25, 0.5, and 1-hour collection time points.
Urine pools were prepared for Group 2 at 0 to 6 and 6 to 12 hours post-dose.
Feces pools were prepared for Group 2 at 0 to 12, 12 to 24, and 24 to 48 hours post-dose.

Huh-7 cells = test: Whole genome bisulfite sequencing (WGBS), promoter 5mCpG demethylation; assay type: cell-based, human; settings: Huh-7, HG 72 h, 25 μM 4 h
Experimental: Each sample, 2 μg, was sent to EpigenDx, Inc. (Hopkinton, Mass.) for analysis of global methylation bisulfite sequencing. The same samples, 6 μg, were sent to Novogene Co., Ltd (Tianjin, China) for analysis of whole genome bisulfite sequencing (WGBS). Total RNA was isolated using the Promega SV total RNA isolation system (Madison, Wis.) with DNase treatment. Each sample, 2 μg, was used for the first-strand cDNA synthesis as recommended by the manufacturer (Invitrogen, Carlsbad, Calif.). Real-time RT-PCR was performed using SYBR Green as the indicator on ABI 7500 Fast Real-Time PCR System (Applied Biosystems, Foster City, Calif.). Amplifications of j-actin or GAPDH were used as internal controls. Relative messenger RNA (mRNA) expression was quantified with the comparative cycle threshold (Ct) method using the primer set shown in Table 1.1 and was expressed as 2^−ΔΔct.
Each sample, 5.2 μg of genomic DNA spiked with 26 ng lambda DNA, was fragmented by sonication to 200-300 bp with Covaris S220, followed by end repair and adenylation. Cytosine-methylated barcodes were ligated to sonicated DNA per the manufacturer's instructions. These DNA fragments were treated twice with bisulfite using EZ DNA Methylation-Gold™ Kit™ (Zymo Research) before the resulting single-strand DNA fragments were PCR amplified using KAPA HiFi Hot Start Uracil and Ready Mix (2×). Library concentration was quantified by Qubit® 2.0 Flurometer (Life Technologies, CA, USA) and quantitative PCR, and the insert size was assayed on an Agilent Bioanalyzer 2100 system.
The library preparations were sequenced on an Illumina Hiseq 2500/4000 or Novaseq™ platform and 125 bp/150 bp paired-end reads were generated. Image analysis and base calling were performed with Illumina CASAVA pipeline. Trimmomatic (Trimmomatic-0.36) software was used for quality control. Bismark software (version 0.16.3; Krueger F, 2011) was used to perform alignments of bisulfite-treated reads to a reference genome (−X 700-dovetail). DSS software (23) was used to identify differentially methylated regions (DMRs). KOBAS software was used to test the statistical enrichment of DMR related genes in the Kyoto Encyclopedia of Genes and Genomes (KEGG) pathways.
Each sample (6 μg) was used for analysis of the whole genome bisulfite sequencing (WGBS).

C[C@H](CCCC(C)(C)O)[C@H]1CC[C@H]2[C@@H]3CC=C4C[C@@H](OS(=O)(=O)O)CC[C@]4(C)[C@H]3CC[C@]12C [25HC3S, 5-Cholesten-3β, 25-diol 3-sulfate]
amount in feces, % of dose ([1]; 0 to 48 hours post-dose pools): 2 % of dose
share of the exposure (AUC) to 25HC3S related radioactivity, plasma ([1]; up to 1 hour post-dose): approximately 54%
DMR (Methylation %) 25HC3S-Vehicle, DRD5P2 promoter (Huh-7 cells; Chr1 1.43E+08): −34.73%
DMR (Methylation %) 25HC3S-Vehicle, ITPKB promoter (Huh-7 cells; Chr1 2.27E+08): −25.12%
DMR (Methylation %) 25HC3S-Vehicle, MAP4K4 promoter (Huh-7 cells; Chr2 1.02E+08): −13.63%
DMR (Methylation %) 25HC3S-Vehicle, ROCK2 promoter (Huh-7 cells; Chr2 11344628-11344733): −23.14%
DMR (Methylation %) 25HC3S-Vehicle, PPP1CB promoter (Huh-7 cells; Chr2 28751716-28751798): −10.93%
DMR (Methylation %) 25HC3S-Vehicle, ADCY5 promoter (Huh-7 cells; Chr3 1.23E+08): −30.44%
DMR (Methylation %) 25HC3S-Vehicle, HRH1 promoter (Huh-7 cells; Chr3 11154292-11154354): −25.48%
DMR (Methylation %) 25HC3S-Vehicle, PLCD1 promoter (Huh-7 cells; Chr3 38029863-38030016): −24.31%
DMR (Methylation %) 25HC3S-Vehicle, DUSP7 promoter (Huh-7 cells; Chr3 52056416-52056485): −40.47%
DMR (Methylation %) 25HC3S-Vehicle, CACNA1D promoter (Huh-7 cells; Chr3 53494583-53494705): −20.46%
DMR (Methylation %) 25HC3S-Vehicle, RAPGEF2 promoter (Huh-7 cells; Chr4 1.59E+08): −36.05%
DMR (Methylation %) 25HC3S-Vehicle, PDE4D promoter (Huh-7 cells; Chr5 59893498-59893718): −27.84%
DMR (Methylation %) 25HC3S-Vehicle, AFDN promoter (Huh-7 cells; Chr6 1.68E+08): −30.68%
DMR (Methylation %) 25HC3S-Vehicle, AL671762.1 promoter (Huh-7 cells; Chr6 31828019-31828149): −27.17%
DMR (Methylation %) 25HC3S-Vehicle, CREB5 promoter (Huh-7 cells; Chr7 28489448-28489601): −29.31%
DMR (Methylation %) 25HC3S-Vehicle, GLI3 promoter (Huh-7 cells; Chr7 42228171-42228223): −19.62%
DMR (Methylation %) 25HC3S-Vehicle, ADCY1 promoter (Huh-7 cells; Chr7 45574500-45574591): −14.76%
DMR (Methylation %) 25HC3S-Vehicle, VAV2 promoter (Huh-7 cells; Chr9 1.34E+08): −33.11%
DMR (Methylation %) 25HC3S-Vehicle, GNAQ promoter (Huh-7 cells; Chr9 78032198-78032440): −11.92%
DMR (Methylation %) 25HC3S-Vehicle, PTCH1 promoter (Huh-7 cells; Chr9 95508446-95508561): −12.09%
DMR (Methylation %) 25HC3S-Vehicle, GABBR2 promoter (Huh-7 cells; Chr9 98708549-98708610): −21.84%
DMR (Methylation %) 25HC3S-Vehicle, ADRB1 promoter (Huh-7 cells; Chr10 1.14E+08): −33.1%
DMR (Methylation %) 25HC3S-Vehicle, CACNB2 promoter (Huh-7 cells; Chr10 18140401-18140547): −21.91%
DMR (Methylation %) 25HC3S-Vehicle, MAPK8 promoter (Huh-7 cells; Chr10 48306510-48306561): −29.24%
DMR (Methylation %) 25HC3S-Vehicle, HRAS promoter (Huh-7 cells; Chr11 535071-535127): −18.85%
DMR (Methylation %) 25HC3S-Vehicle, DUSP8 promoter (Huh-7 cells; Chr11 1572973-1573032): −30.51%
DMR (Methylation %) 25HC3S-Vehicle, BAD promoter (Huh-7 cells; Chr11 64286088-64286179): −42.33%
DMR (Methylation %) 25HC3S-Vehicle, RELA promoter (Huh-7 cells; Chr11 65661914-65662035): −35.1%
DMR (Methylation %) 25HC3S-Vehicle, CACNA1C-AS1 promoter (Huh-7 cells; Chr12 2691335-2691438): −20.97%
DMR (Methylation %) 25HC3S-Vehicle, NTF3 promoter (Huh-7 cells; Chr12 5432796-5432882): −33.48%
DMR (Methylation %) 25HC3S-Vehicle, EDNRB promoter (Huh-7 cells; Chr13 77919496-77919743): −34.09%
DMR (Methylation %) 25HC3S-Vehicle, ABCC4 promoter (Huh-7 cells; Chr13 95301634-95301736): −33.06%
DMR (Methylation %) 25HC3S-Vehicle, ADCY4 promoter (Huh-7 cells; Chr14 24334570-24334719): −18.63%
DMR (Methylation %) 25HC3S-Vehicle, MAX promoter (Huh-7 cells; Chr14 65102273-65102358): −31.75%
DMR (Methylation %) 25HC3S-Vehicle, SLC8A3 promoter (Huh-7 cells; Chr14 70188747-70189089): −28.51%
DMR (Methylation %) 25HC3S-Vehicle, TGFB3 promoter (Huh-7 cells; Chr14 75982395-75982557): −23.74%
DMR (Methylation %) 25HC3S-Vehicle, CACNA1H promoter (Huh-7 cells; Chr16 1194928-1195015): −26.48%
DMR (Methylation %) 25HC3S-Vehicle, GRIN2A promoter (Huh-7 cells; Chr16 10183302-10183414): −19.63%
DMR (Methylation %) 25HC3S-Vehicle, GRIN2C promoter (Huh-7 cells; Chr17 74861739-74861853): −37.6% and −37.64%
DMR (Methylation %) 25HC3S-Vehicle, SPHK1 promoter (Huh-7 cells; Chr17 76383180-76383291): −24.74%
DMR (Methylation %) 25HC3S-Vehicle, GRIN3B promoter (Huh-7 cells; Chr19 1000331-1000405): −34.67%
DMR (Methylation %) 25HC3S-Vehicle, GADD45B promoter (Huh-7 cells; Chr19 2474806-2474873): −28.6%
DMR (Methylation %) 25HC3S-Vehicle, GNA11 promoter (Huh-7 cells; Chr19 3094383-3094442): −32.66%
DMR (Methylation %) 25HC3S-Vehicle, AC005264.2 promoter (Huh-7 cells; Chr19 3156392-3156457): −15.76%
DMR (Methylation %) 25HC3S-Vehicle, CACNA1A promoter (Huh-7 cells; Chr19 13226635-13226711): −39.91%
DMR (Methylation %) 25HC3S-Vehicle, CTB-186G2.1 promoter (Huh-7 cells; Chr19 38596260-38596495): −34.3%
DMR (Methylation %) 25HC3S-Vehicle, MAP4K1 promoter (Huh-7 cells; Chr19 38596260-38596495): −34.3%
DMR (Methylation %) 25HC3S-Vehicle, ATP1A3 promoter (Huh-7 cells; Chr19 41999134-41999316): −15.75%
DMR (Methylation %) 25HC3S-Vehicle, GIPR promoter (Huh-7 cells; Chr19 45668710-45668767): −10.04%
DMR (Methylation %) 25HC3S-Vehicle, CACNG8 promoter (Huh-7 cells; Chr19 53961377-53961479): −31.18%
DMR (Methylation %) 25HC3S-Vehicle, GNAS promoter (Huh-7 cells; Chr20 58888598-58888893): −25.68%
DMR (Methylation %) 25HC3S-Vehicle, MAPK1 promoter (Huh-7 cells; Chr22 21867450-21867512): −7.66%
DMR (Methylation %) 25HC3S-Vehicle, PDGFB promoter (Huh-7 cells; Chr22 39243967-39244084): −30.51%
